What all share (format): functional
Experiment [1] concerns Candida albicans. The experiment is described as follows: Antifungal activity against Candida albicans ATCC 10231 at 10 ug after 72 hrs by disk diffusion method. The note with it: ATCC 10231, 72 h, read-out: IZ. In general terms: A growth-free zone around the sample is the usual read-out of agar diffusion tests.
The subject of experiment [2] is Kluyveromyces marxianus. The experiment is described as follows: Antifungal activity against Kluyveromyces fragilis NRRL 2415 at 10 ug after 72 hrs by disk diffusion method. The note with it: NRRL 2415, 72 h, read-out: IZ.
For experiment [3], the system named is Rhodotorula mucilaginosa. The experiment is described as follows: Antifungal activity against Rhodotorula rubra DSM 70403 at 10 ug after 72 hrs by disk diffusion method. The note with it: DSM 70403, 72 h, read-out: IZ.
Experiment [4] relates to Hanseniaspora guilliermondii. The experiment is described as follows: Antifungal activity against Hanseniaspora guilliermondii DSM 3432 at 10 ug after 72 hrs by disk diffusion method. The settings on record: DSM 3432, 72 h, read-out: IZ.
The subject of experiment [5] is Debaryomyces hansenii. As to the kind of experiment: Antifungal activity against Debaryomyces hansenii DSM 70238 at 10 ug after 72 hrs by disk diffusion method. The settings on record: DSM 70238, 72 h, read-out: IZ.
In experiment [6] the test system is Candida albicans. The experiment is described as follows: Antifungal activity against Candida albicans ATCC 10231 at 1 ug after 72 hrs by disk diffusion method. The note with it: ATCC 10231, 72 h, read-out: IZ.
The test system of experiment [7] is Kluyveromyces marxianus. As to the kind of experiment: Antifungal activity against Kluyveromyces fragilis NRRL 2415 at 1 ug after 72 hrs by disk diffusion method. The note with it: NRRL 2415, 72 h, read-out: IZ.
Experiment [8] deals with Rhodotorula mucilaginosa. As to the kind of experiment: Antifungal activity against Rhodotorula rubra DSM 70403 at 1 ug after 72 hrs by disk diffusion method. The note with it: DSM 70403, 72 h, read-out: IZ.
In experiment [9] the test system is Hanseniaspora guilliermondii. The experiment is described as follows: Antifungal activity against Hanseniaspora guilliermondii DSM 3432 at 1 ug after 72 hrs by disk diffusion method. The note with it: DSM 3432, 72 h, read-out: IZ.
For experiment [10], the system named is Debaryomyces hansenii. As to the kind of experiment: Antifungal activity against Debaryomyces hansenii DSM 70238 at 1 ug after 72 hrs by disk diffusion method. The note with it: DSM 70238, 72 h, read-out: IZ.
The test system of experiment [11] is Escherichia coli. The experiment is described as follows: Antibacterial activity against Escherichia coli ATCC 11230 at 5 ug after 24 hrs by disk diffusion method. The note with it: ATCC 11230, 24 h, read-out: IZ.
The test system of experiment [12] is Staphylococcus aureus. As to the kind of experiment: Antibacterial activity against Staphylococcus aureus ATCC 6538 at 5 ug after 24 hrs by disk diffusion method. The note with it: ATCC 6538, 24 h, read-out: IZ.
Experiment [13] deals with Klebsiella pneumoniae. The experiment is described as follows: Antibacterial activity against Klebsiella pneumoniae UC57 at 5 ug after 24 hrs by disk diffusion method. The settings on record: read-out: IZ.
Experiment [14] deals with Pseudomonas aeruginosa. As to the kind of experiment: Antibacterial activity against Pseudomonas aeruginosa ATCC 27853 at 5 ug after 24 hrs by disk diffusion method. The note with it: ATCC 27853, 24 h, read-out: IZ.
The subject of experiment [15] is Proteus vulgaris. As to the kind of experiment: Antibacterial activity against Proteus vulgaris ATCC 8427 at 5 ug after 24 hrs by disk diffusion method. The note with it: ATCC 8427, 24 h, read-out: IZ.
The subject of experiment [16] is Bacillus cereus. The experiment is described as follows: Antibacterial activity against Bacillus cereus ATCC 7064 at 5 ug after 24 hrs by disk diffusion method. The settings on record: ATCC 7064, 24 h, read-out: IZ.
In experiment [17] the test system is Mycolicibacterium smegmatis. The experiment is described as follows: Antibacterial activity against Mycobacterium smegmatis CCM 2067 at 5 ug after 24 hrs by disk diffusion method. The settings on record: CCM 2067, 24 h, read-out: IZ.
Experiment [18] has as its system Listeria monocytogenes. As to the kind of experiment: Antibacterial activity against Listeria monocytogenes ATCC 15313 at 5 ug after 24 hrs by disk diffusion method. The note with it: ATCC 15313, 24 h, read-out: IZ.
The test system of experiment [19] is Micrococcus luteus. As to the kind of experiment: Antibacterial activity against Micrococcus luteus La 2971 at 5 ug after 24 hrs by disk diffusion method. The note with it: read-out: IZ.
Experiment [20] deals with Escherichia coli. The experiment is described as follows: Antibacterial activity against Escherichia coli ATCC 11230 at 30 ug after 24 hrs by disk diffusion method. The settings on record: ATCC 11230, 24 h, read-out: IZ.
In experiment [21] the test system is Staphylococcus aureus. As to the kind of experiment: Antibacterial activity against Staphylococcus aureus ATCC 6538 at 30 ug after 24 hrs by disk diffusion method. The settings on record: ATCC 6538, 24 h, read-out: IZ.
Experiment [22] has as its system Klebsiella pneumoniae. As to the kind of experiment: Antibacterial activity against Klebsiella pneumoniae UC57 at 30 ug after 24 hrs by disk diffusion method. The note with it: read-out: IZ.
The test system of experiment [23] is Pseudomonas aeruginosa. As to the kind of experiment: Antibacterial activity against Pseudomonas aeruginosa ATCC 27853 at 30 ug after 24 hrs by disk diffusion method. The settings on record: ATCC 27853, 24 h, read-out: IZ.
Experiment [24] deals with Proteus vulgaris. As to the kind of experiment: Antibacterial activity against Proteus vulgaris ATCC 8427 at 30 ug after 24 hrs by disk diffusion method. The settings on record: ATCC 8427, 24 h, read-out: IZ.
The subject of experiment [25] is Bacillus cereus. As to the kind of experiment: Antibacterial activity against Bacillus cereus ATCC 7064 at 30 ug after 24 hrs by disk diffusion method. The note with it: ATCC 7064, 24 h, read-out: IZ.
Experiment [26] concerns Mycolicibacterium smegmatis. The experiment is described as follows: Antibacterial activity against Mycobacterium smegmatis CCM 2067 at 30 ug after 24 hrs by disk diffusion method. The note with it: CCM 2067, 24 h, read-out: IZ.
Experiment [27] deals with Listeria monocytogenes. The experiment is described as follows: Antibacterial activity against Listeria monocytogenes ATCC 15313 at 30 ug after 24 hrs by disk diffusion method. The note with it: ATCC 15313, 24 h, read-out: IZ.
In experiment [28] the test system is Micrococcus luteus. The experiment is described as follows: Antibacterial activity against Micrococcus luteus La 2971 at 30 ug after 24 hrs by disk diffusion method. The settings on record: read-out: IZ.

Four compounds from ChEMBL document CHEMBL1152842, “Synthesis, Raman, FT-IR, NMR spectroscopic data and antimicrobial activity of mixed aza-oxo-thia macrocyclic compounds” (2009) can be followed below.

On to `Clc1ccccc1C(c1ccccc1)(c1ccccc1)n1ccnc1` [CLOTRIMAZOLE], for which the zone of inhibition at 10 µg/disc with Candida albicans [1] came out at 18 mm; in the experiment with Kluyveromyces marxianus [2], 16 mm; in the experiment on Rhodotorula mucilaginosa [3], 15 mm; in experiment [4] it was 22 mm; in the experiment on Debaryomyces hansenii [5], 18 mm.

In the case of `CC(=O)N1CCN(c2ccc(OCC3COC(Cn4ccnc4)(c4ccc(Cl)cc4Cl)O3)cc2)CC1` (stereo not drawn) [KETOCONAZOLE], the zone of inhibition at 1 µg/disc in the experiment on Candida albicans [6] amounted to 16 mm; in the experiment on Kluyveromyces marxianus [7] it was 22 mm; with Rhodotorula mucilaginosa [8], 21 mm; in [9] it was 24 mm; with Debaryomyces hansenii [10], 14 mm.

For the compound `CC1COc2c(N3CCN(C)CC3)c(F)cc3c(=O)c(C(=O)O)cn1c23` (stereo not drawn) [OFLOXACIN], the zone of inhibition at 5 µg/disc in the experiment on Escherichia coli [11] came to 30 mm; in the experiment with Staphylococcus aureus [12], 24 mm; in the experiment on Klebsiella pneumoniae [13], 28 mm; with Pseudomonas aeruginosa [14], 30 mm; in the experiment with Proteus vulgaris [15], 28 mm; in the experiment with Bacillus cereus [16], 28 mm. The zone of inhibition at 5 µg/disc is 32 mm in [17], 30 mm with Listeria monocytogenes [18] and 44 mm in the experiment on Micrococcus luteus [19].

Consider `CN(C)[C@@H]1C(O)=C(C(N)=O)C(=O)[C@@]2(O)C(O)=C3C(=O)c4c(O)cccc4[C@@](C)(O)[C@H]3C[C@@H]12` [TETRACYCLINE], for which the zone of inhibition at 30 µg/disc came to 28 mm in the experiment on Escherichia coli [20]; 26 mm with Staphylococcus aureus [21]; 30 mm with Klebsiella pneumoniae [22]; 25 mm with Pseudomonas aeruginosa [23]; 22 mm with Proteus vulgaris [24]; 26 mm in the experiment with Bacillus cereus [25]. Further, the zone of inhibition at 30 µg/disc came out at 24 mm in experiment [26], 28 mm in the experiment on Listeria monocytogenes [27] and 34 mm in the experiment on Micrococcus luteus [28].
